This note sets out measurements from ChEMBL document CHEMBL1134851, “Apoptosis-inducing activity of synthetic intermediates of halichlorine” (Bioorg Med Chem Lett, 2002).

This test has as its system THP-1. The test is described as follows: Cytotoxicity towards the acute monocytic leukemia cell line (THP-1). The class given is functional, cell-based. Particulars: Homo sapiens.
In turn, `O=C1OC[C@H]2CCC[C@]23CCC[C@H](CCO)N13` displayed an IC50 of over 100 µM.

In turn, `N#CC1=CC[C@H]2CCC[C@]3(CCC[C@@H]3CO)N2C1=O` registered an IC50 of over 100 µM.

`CCO/C(O)=C/C1=N[C@]2(CCC1)CCC[C@@H]2CO` gave a 50% inhibitory concentration (IC50) of over 100 µM.

In turn, `CC(=O)N1[C@@H](CCO)CCC[C@]12CCC[C@@H]2CO[Si](c1ccccc1)(c1ccccc1)C(C)(C)C` came in with an IC50 of 25 µM.

For `CCO/C(O)=C/C1=N[C@]2(CCC1)CCC[C@@H]2CO[Si](c1ccccc1)(c1ccccc1)C(C)(C)C`, the half-maximal inhibitory concentration (IC50) is over 100 µM.

Turning to `O=C1OCC[C@H]2CCC[C@]3(CCC[C@@H]3CO)N12`, the IC50 was over 100 µM.

For the molecule `CCOC(=O)C[C@H]1CCC[C@]2(CCC[C@@H]2CO[Si](c2ccccc2)(c2ccccc2)C(C)(C)C)N1`, 40 µM corresponded to half-maximal inhibition (IC50).

As to `CC(C)(C)[Si](OC[C@H]1CCC[C@]12CCC[C@@H]1CCC(CO)CN12)(c1ccccc1)c1ccccc1` (some centres not stated), the IC50 is 32 µM.

Take `CC(C)(C)[Si](OC[C@H]1CCC[C@]12CCC[C@@H]1CCCC(=O)N12)(c1ccccc1)c1ccccc1`: the IC50 amounted to 71 µM.

`CC(C)(C)[Si](OC[C@H]1CCC[C@]12CCC[C@H](CCO)N2)(c1ccccc1)c1ccccc1` yielded an IC50 of 8.9 µM.

Consider `CC(C)(C)[Si](OC[C@H]1CCC[C@]12CCC[C@@H]1CCOC(=O)N12)(c1ccccc1)c1ccccc1`, for which inhibition was half-maximal at 32 µM (IC50).

On to `CC(C)(C)[Si](OC[C@H]1CCC[C@]12CCC[C@@H]1CCC(CO)C(=O)N12)(c1ccccc1)c1ccccc1` (some centres not stated), for which 63 µM corresponded to half-maximal inhibition (IC50).

Turning to `CCOC(=O)C[C@@H]1CCC[C@@]23CCC[C@@H]2CON13`, the IC50 is over 100 µM.

As to `COC(=O)C1CC[C@H]2CCC[C@]3(CCC[C@@H]3CO)N2C1=O` (some centres not stated), the IC50 is over 100 µM.

`COC(=O)C1CC[C@H]2CCC[C@]3(CCC[C@@H]3CO[Si](c3ccccc3)(c3ccccc3)C(C)(C)C)N2C1=O` (some centres not stated): the IC50 is over 100 µM.

The molecule `O=C1CCC[C@H]2CCC[C@]3(CCC[C@@H]3CO)N12` gave a half-maximal inhibitory concentration (IC50) of over 100 µM.

For the molecule `COC(=O)C1=CC[C@H]2CCC[C@]3(CCC[C@@H]3CO[Si](c3ccccc3)(c3ccccc3)C(C)(C)C)N2C1=O`, the IC50 is 5 µM.
